Measurements as given in ChEMBL document CHEMBL1145932, “Design and synthesis of novel bioactive peptides and peptidomimetics” (J Med Chem, 2003).
The source made the active and inactive calls. The rule behind the calls is not given here. Numbered stars: 1 amine (or outer) side, 2 acyl side, 3 side chain; on linkers, the order of the positions; unused ones are H or OH. Square brackets hold non-standard residues; d marks the D form. Peptide text beside a SMILES is read from it. * marks the point of attachment. ξ: configuration not given here. Doxorubicin(3'-N) = COc1cccc2c1C(=O)c1c(O)c3c(c(O)c1C2=O)C[C@@](O)(C(=O)CO)C[C@@H]3O[C@H]1C[C@H](N*)[C@H](O)[C@H](C)O1; X2 = COc1cccc2c1C(=O)c1c(O)c3c(c(O)c1C2=O)C[C@@](O)(C(=O)CO)C[C@@H]3O[C@H]1C[C@@H](N*)[C@H](O)[C@H](C)O1; X1 = COc1cccc2c1C(=O)c1c(O)c3c(c(O)c1C2=O)C[C@@](O)(C(=O)CO)C[C@@H]3OC1CC(N*)C(O)C(C)O1; ξPro(4R-OH) = O=C(O)C1C[C@@H](O)CN1; Glutaryl = O=C(CCCC(=O)[*:2])[*:1]; Hyp = O=C(O)[C@@H]1C[C@@H](O)CN1; Chg = N[C@H](C(=O)O)C1CCCCC1; Suc = O=C(CCC(=O)[*:2])[*:1]

How the values were obtained:
DuPro = test: In vitro effective concentration against DuPRO cancer cell line; assay type: functional, cell-based; settings: Homo sapiens
LNCaP = test: In vitro effective concentration against LNCaP prostate cancer cell line; assay type: functional, cell-based; settings: Homo sapiens
[1] = Half life period was determined; assay type: ADME
Rattus norvegicus [2] = organism: Rattus norvegicus; test: In vitro relative potency for the inhibition of growth hormone release; assay type: functional
Rattus norvegicus [3] = organism: Rattus norvegicus; test: Relative potency for the inhibition of glucagon hormone release; assay type: functional
Rattus norvegicus [4] = organism: Rattus norvegicus; test: Relative potency for the inhibition of insulin hormone release; assay type: functional
COLO 320 = test: In vitro effective concentration against COLO 320 cell line; assay type: functional, cell-based; settings: Homo sapiens
Mus musculus [5] = test: In vivo maximum tolerated dose was determined; assay type: functional
Mus musculus [6] = test: In vivo percentage reduction of prostate specific antigen (PSA) was determined at a dose of 0.26 umol/kg of the compound; assay type: functional, Prostate gland
Mus musculus [7] = test: In vivo maximum tolerated dose in nude mice was determined; assay type: functional
T47D = test: In vitro effective concentration against T47D cell line; assay type: functional, cell-based; settings: Homo sapiens
Rattus norvegicus [8] = organism: Rattus norvegicus; test: Relative potency for the inhibition of glucagon hormone release; Active; assay type: functional, organism-based
Mus musculus [9] = test: In vivo percentage weight reduction of tumor was determined at a dose of 0.26 umol/kg of the compound; assay type: functional
Rattus norvegicus [10] = organism: Rattus norvegicus; test: Relative potency for the inhibition of growth hormone release; assay type: functional

SMILES	EC50 (LNCaP) [µM]	half-life [1] [min]	Relative potency (Rattus norvegicus [2])	Relative potency (Rattus norvegicus [4])	also measured
COc1cccc2c1C(=O)c1c(O)c3c(c(O)c1C2=O)C[C@@](O)(C(=O)CO)C[C@@H]3OC1CC(NC(=O)[C@H](CC(C)C)NC(=O)[C@H](CO)NC(=O)[C@H](CCC(N)=O)NC(=O)[C@@H](NC(=O)[C@H](CO)NC(=O)[C@H](C)NC(=O)C2C[C@@H](O)CN2C(C)=O)C2CCCCC2)C(O)C(C)O1 (stereo partly drawn) (Ac-[ξPro(4R-OH)]AS[Chg]QSL-X1)	4.5	20	–	–	EC50 (DuPro): 100 µM
C[C@H](N)C(=O)NCC(=O)N[C@H]1CSSC[C@@H](C(=O)O)NC(=O)[C@H](CO)NC(=O)[C@H]([C@@H](C)O)NC(=O)[C@H](Cc2ccccc2)NC(=O)[C@H]([C@@H](C)O)NC(=O)[C@H](CCCCN)NC(=O)[C@H](Cc2c[nH]c3ccccc23)NC(=O)[C@H](Cc2ccccc2)NC(=O)[C@H](Cc2ccccc2)NC(=O)[C@H](CC(N)=O)NC(=O)[C@H](CCCCN)NC1=O [SOMATOSTATIN]	–	–	1	–	–
C[C@@H](O)[C@@H]1NC(=O)[C@H](CCCCN)NC(=O)[C@H](Cc2c[nH]c3ccccc23)NC(=O)[C@H](Cc2ccccc2)NC(=O)CN2CCC[C@@H](NC1=O)C2=O	–	–	< 0.005	< 0.07	Relative potency (Rattus norvegicus [3]): < 0.07
COc1cccc2c1C(=O)c1c(O)c3c(c(O)c1C2=O)C[C@@](O)(C(=O)CO)C[C@@H]3OC1CC(NC(=O)C(N)CC(C)C)C(O)C(C)O1 (stereo partly specified)	6.7	–	–	–	EC50 (DuPro): 14 µM
COc1cccc2c1C(=O)c1c(O)c3c(c(O)c1C2=O)C[C@@](O)(C(=O)CO)C[C@@H]3OC1CC(NC(=O)[C@H](CC(C)C)NC(=O)[C@H](CO)NC(=O)[C@H](CCC(N)=O)NC(=O)[C@H](Cc2ccc(O)cc2)NC(=O)[C@H](CO)NC(=O)[C@H](C)NC(=O)[C@H](CCCCN)NC(C)=O)C(O)C(C)O1 (stereo partly specified) (Ac-KASYQSL-X1)	–	30	–	–	–
C[C@@H](O)[C@@H]1NC(=O)[C@H](CCCCN)NC(=O)[C@H](Cc2c[nH]c3ccccc23)NC(=O)[C@H](Cc2ccccc2)NC(=O)CN2CCC[C@H](NC1=O)C2=O	–	–	< 0.005	< 0.07	Relative potency (Rattus norvegicus [3]): < 0.07
C[C@@H](O)[C@@H]1NC(=O)[C@H](CCCCN)NC(=O)[C@@H](Cc2c[nH]c3ccccc23)NC(=O)[C@H](Cc2ccccc2)NC(=O)[C@H](C)N(C)C(=O)[C@H](Cc2ccccc2)NC1=O	–	–	3.5	6	Relative potency (Rattus norvegicus [3]): 16.7
CC[C@]1(O)CC[C@@H]2CN1CCC1c3ccccc3NC1[C@@H](c1cc3c(cc1OC)N(C)C1C34CCN3CC=C[C@](CC)(C34)[C@@H](OC(=O)[C@@H]3CCCN3C(=O)[C@H](CO)NC(=O)[C@H](CO)NC(=O)[C@H](CCC(N)=O)NC(=O)[C@@H](NC(=O)[C@H](CO)NC(=O)[C@H](CO)NC(=O)[C@@H]3CC(O)CN3C(C)=O)C3CCCCC3)[C@]1(O)C(=O)OC)[C@H]2C(=O)OC (stereo partly specified)	1.6	12	–	–	EC50 (COLO 320): 14 µM; MTD (Mus musculus [5]): 21.4 µM/kg; PSA (Mus musculus [6]): 99%; Tumor weight reduction (Mus musculus [7]): 85%; EC50 (T47D): > 50 µM
C[C@H](O)[C@H]1NC(=O)[C@@H](Cc2ccccc2)NC(=O)[C@@H](C)N(C)C(=O)[C@@H](Cc2ccccc2)NC(=O)[C@H](Cc2c[nH]c3ccccc23)CNC(=O)[C@@H](CCCCN)NC1=O	–	–	0.003	–	–
C[C@@H](O)[C@@H]1NC(=O)[C@H](CCCCN)N(C)C(=O)[C@@H](Cc2c[nH]c3ccccc23)NC(=O)[C@H](Cc2ccccc2)NC(=O)[C@@H]2CCCN2C(=O)[C@H](Cc2ccccc2)NC1=O	–	–	1.6	0.5	Relative potency (Rattus norvegicus [8]): Active
C[C@@H](O)[C@@H]1NC(=O)[C@H](CCCCN)NC(=O)[C@@H](Cc2c[nH]c3ccccc23)NC(=O)[C@H](Cc2ccccc2)NC(=O)CN2CC[C@@H](NC1=O)C2=O	–	–	0.001	< 0.2	Relative potency (Rattus norvegicus [3]): < 0.2
COc1cccc2c1C(=O)c1c(O)c3c(c(O)c1C2=O)C[C@@](O)(C(=O)CO)C[C@@H]3O[C@H]1C[C@@H](NC(=O)[C@H](CC(C)C)NC(=O)[C@H](CO)NC(=O)[C@H](CCC(N)=O)NC(=O)[C@@H](NC(=O)[C@H](CO)NC(=O)[C@H](C)NC(=O)[C@@H]2C[C@@H](O)CN2C(=O)CCCC(=O)O)C2CCCCC2)[C@H](O)[C@H](C)O1 (Glutaryl-[Hyp]AS[Chg]QSL-X2)	5	30	–	–	EC50 (DuPro): > 100 µM
COc1cccc2c1C(=O)c1c(O)c3c(c(O)c1C2=O)C[C@@](O)(C(=O)CO)C[C@@H]3OC1CC(NC(=O)[C@H](CC(C)C)NC(=O)[C@H](CO)NC(=O)[C@H](CCC(N)=O)NC(=O)[C@@H](NC(=O)[C@H](CO)NC(=O)[C@H](C)NC(=O)[C@H](CCCCN)NC(C)=O)C2CCCCC2)C(O)C(C)O1 (stereo partly specified) (Ac-KAS[Chg]QSL-X1)	–	10	–	–	EC50 (DuPro): > 100 µM
C[C@H](O)[C@H]1NC(=O)[C@@H](Cc2ccccc2)N(C)C(=O)[C@@H](C)NC(=O)[C@@H](Cc2ccccc2)NC(=O)[C@@H](Cc2c[nH]c3ccccc23)CNC(=O)[C@H](CCCCN)NC1=O	–	–	0.88	–	–
COc1cccc2c1C(=O)c1c(O)c3c(c(O)c1C2=O)C[C@@](O)(C(=O)CO)C[C@@H]3O[C@H]1C[C@H](NC(=O)[C@H](CC(C)C)NC(=O)[C@H](CO)NC(=O)[C@H](CO)NC(=O)[C@H](CCC(N)=O)NC(=O)[C@H](Cc2ccc(O)cc2)NC(=O)[C@H](CO)NC(=O)[C@H](C)NC(=O)[C@H](CCCCN)NC(=O)[C@H](CC(N)=O)NC(=O)[C@H](C)NC(C)=O)[C@H](O)[C@H](C)O1 (Ac-ANKASYQSSL-{Doxorubicin(3'-N)})	–	100	–	–	EC50 (DuPro): > 100 µM
C[C@H](O)[C@H]1NC(=O)[C@@H](Cc2ccccc2)N(C)C(=O)[C@@H](C)NC(=O)[C@@H](Cc2ccccc2)NC(=O)[C@H](Cc2c[nH]c3ccccc23)CNC(=O)[C@@H](CCCCN)NC1=O	–	–	0.27	–	–
C[C@@H](O)[C@@H]1NC(=O)[C@H](CCCCN)NC(=O)[C@@H](Cc2c[nH]c3ccccc23)NC(=O)[C@H](Cc2ccccc2)NC(=O)[C@@H]2CCCN2C(=O)[C@H](Cc2ccccc2)N(C)C1=O	–	–	0.53	1.1	Relative potency (Rattus norvegicus [3]): 2
CC[C@]1(O)CC[C@@H]2CN1CCC1c3ccccc3NC1[C@@H](c1cc3c(cc1OC)N(C)C1C34CCN3CC=C[C@](CC)(C34)[C@@H](OC(C)=O)[C@]1(O)C(=O)OC)[C@H]2C(=O)OC (stereo partly specified)	0.5	–	–	–	–
C[C@@H](O)[C@@H]1NC(=O)[C@H](CCCCN)NC(=O)[C@@H](Cc2c[nH]c3ccccc23)NC(=O)[C@H](Cc2ccccc2)NC(=O)CN2CC[C@H](NC1=O)C2=O	–	–	0.004	< 0.07	Relative potency (Rattus norvegicus [3]): < 0.07
COc1cccc2c1C(=O)c1c(O)c3c(c(O)c1C2=O)C[C@@](O)(C(=O)CO)C[C@@H]3OC1CC(NC(=O)[C@H](CC(C)C)NC(=O)[C@H](CO)NC(=O)[C@H](CCC(N)=O)NC(=O)[C@@H](NC(=O)[C@H](CO)NC(=O)[C@H](C)NC(=O)C2C[C@@H](O)CN2C(=O)CCC(=O)O)C2CCCCC2)C(O)C(C)O1 (stereo partly drawn) (Suc-[ξPro(4R-OH)]AS[Chg]QSL-X1)	5.7	55	–	–	EC50 (DuPro): 100 µM
CC[C@]1(O)CC[C@@H]2CN1CCC1c3ccccc3NC1[C@@H](c1cc3c(cc1OC)N(C)C1C34CCN3CC=C[C@](CC)(C34)[C@@H](O)[C@]1(O)C(=O)OC)[C@H]2C(=O)OC (stereo partly specified)	0.1	–	–	–	EC50 (COLO 320): 0.2 µM; PSA (Mus musculus [6]): 14%; MTD (Mus musculus [7]): 0.26 µM/kg; Tumor weight reduction (Mus musculus [9]): 16%; EC50 (T47D): 0.15 µM
C[C@@H](O)[C@@H]1NC(=O)[C@H](CCCCN)NC(=O)[C@@H](Cc2c[nH]c3ccccc23)NC(=O)[C@H](Cc2ccccc2)NC(=O)[C@@H]2CSSC[C@H](NC1=O)C(=O)NCCCCCCC(=O)N2	–	–	–	–	Relative potency (Rattus norvegicus [10]): 1.24
